Earlier results as cited in patent US4256727A, “Synthesis and use of diagnostic radio-pharmaceuticals comprising radioactive isotopes of bromine with dyes” (The University of Kentucky Research Foundation, priority 1978, dated 1981).

What was measured:
[1] = rate at which the drug is cleared from the blood after injection
[2] = formulated with propylene glycol and stored at refrigerated temperatures

Compound | half life of clearance from the blood [1] [min] | stability of the product [2]
O=C1OC2(c3cc(I)c(O)c(I)c3Oc3c2cc(I)c(O)c3I)c2c(Cl)c(Cl)c(Cl)c(Cl)c21 [Rose Bengal] | 8 to 10 | stable
O=S1(=O)OC(c2cc(Br)c(O)c(Br)c2)(c2cc(Br)c(O)c(Br)c2)c2ccccc21 [bromphenol blue, 4,4'-(3H-2,1,-benzoxathiol-3-ylidene)bis[2,6-dibromophenol]S,S,-dioxide] | 1.5 | –
